One assay addresses HRAS wild-type protein (Homo sapiens, UniProt P01112). In words: Binding to HRAS by surface plasmon resonance (SPR), KD and KD ratio to KRAS. As to conditions: ratio of the KD value with respect to HRAS wild-type protein to the KD value with respect to KRAS. Put shortly: (§1)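 Recombinant RAS proteins bearing a biotinylated Avi tag and loaded with GDP served as the captured ligand, recaptured fresh every cycle. Binding responses were referenced to an uncoated surface and a buffer-only blank cycle. Dissociation constants were obtained by 1:1 model fitting at 30°C.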

In assay [1] the target is GDP-bound NRAS wild-type protein (Homo sapiens, UniProt P01111). In words: Binding to NRAS by surface plasmon resonance (SPR), KD and KD ratio to KRAS. As to conditions: ratio of the KD value with respect to GDP-bound NRAS wild-type protein to the KD value with respect to KRAS. Put shortly: as §1
Sequence of GDP-bound NRAS wild-type protein (P01111 whole entry): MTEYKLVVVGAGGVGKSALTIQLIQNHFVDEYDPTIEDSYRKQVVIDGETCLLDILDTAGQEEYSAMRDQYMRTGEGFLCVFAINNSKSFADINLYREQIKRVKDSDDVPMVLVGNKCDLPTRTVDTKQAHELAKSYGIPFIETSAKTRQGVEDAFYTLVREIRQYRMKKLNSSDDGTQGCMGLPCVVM
Assay [2] concerns human lung cancer strain NCI-H441. It is filed as cell-based. A digest of the protocol: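 Signal came from […] measured per well once the reagent was added. Beforehand, cells were cultured at 37°C and 5% carbon dioxide on a compound series serially diluted in dimethyl sulfoxide.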

Molecules are shown by their SMILES. Where a SMILES comes first, the peptide text is derived from it. Bridges are numbered along the chain shown (N, C = ends). [ ]: non-standard residue; d: D form. hPhe(3-Cl-4-CF3) = N[C@@H](CCc1ccc(C(F)(F)F)c(Cl)c1)C(=O)O; NPrPhe(4-CF3) = CCCN[C@@H](Cc1ccc(C(F)(F)F)cc1)C(=O)O; NMeGly(cPent) = CN[C@H](C(=O)O)C1CCCC1; Pro(4,4-F2) = O=C(O)[C@@H]1CC(F)(F)CN1; Hyp = O=C(O)[C@@H]1C[C@@H](O)CN1; NMeD = CN[C@@H](CC(=O)O)C(=O)O; NMeL = CN[C@@H](CC(C)C)C(=O)O; Ac5c = NC1(C(=O)O)CCCC1; Ac4c = NC1(C(=O)O)CCC1; NEtG = CCNCC(=O)O; Sar = CNCC(=O)O

Sequence of HRAS wild-type protein (P01112 whole entry): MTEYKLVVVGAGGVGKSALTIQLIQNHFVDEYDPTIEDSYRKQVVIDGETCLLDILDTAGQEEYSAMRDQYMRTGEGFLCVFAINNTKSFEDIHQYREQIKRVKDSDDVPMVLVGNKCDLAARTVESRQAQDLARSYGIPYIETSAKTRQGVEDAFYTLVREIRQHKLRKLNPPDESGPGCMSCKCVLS

For the molecule `CCCN1C(=O)CN(C)C(=O)CN(C)C(=O)[C@H]([C@@H](C)CC)NC(=O)[C@H](CC(C)C)N(C)C(=O)C[C@@H](C(=O)N(C)C)N(C)C(=O)[C@H](C2CCCC2)N(C)C(=O)C2(CCCC2)NC(=O)[C@@H]2C[C@@H](OCC)CN2C(=O)[C@H](CCc2ccc(C(F)(F)F)c(Cl)c2)NC(=O)CN(C)C(=O)[C@@H]1Cc1ccc(C(F)(F)F)cc1` [PP0415] ([NMeL]I[Sar][Sar][NPrPhe(4-CF3)][Sar][hPhe(3-Cl-4-CF3)][Hyp](Et)[Ac5c][NMeGly(cPent)][NMeD]-NMe2; lactam N-11), at HRAS wild-type protein, the “HRAS /KRAS” value was “B (a compound having 3 or more and less than 10 is denoted as B)”. Besides, the “NRAS /KRAS” value in assay [1] was “B (a compound having 3 or more and less than 10 is denoted as B)”. The molecule also displayed a 50% inhibitory concentration (IC50) in assay [2] of 1.9 nM.
For the molecule `CCCN1C(=O)CN(C)C(=O)CN(C)C(=O)[C@H]([C@@H](C)CC)NC(=O)[C@H](CC(C)C)N(C)C(=O)C[C@@H](C(=O)N(C)C)N(C)C(=O)[C@H](C2CCCC2)N(C)C(=O)C2(CCC2)NC(=O)[C@@H]2C[C@@H](OCC)CN2C(=O)[C@H](CCc2ccc(C(F)(F)F)c(Cl)c2)NC(=O)CN(C)C(=O)[C@@H]1Cc1ccc(C(F)(F)F)cc1` [PP0416] ([NMeL]I[Sar][Sar][NPrPhe(4-CF3)][Sar][hPhe(3-Cl-4-CF3)][Hyp](Et)[Ac4c][NMeGly(cPent)][NMeD]-NMe2; lactam N-11), the “HRAS /KRAS” value on HRAS wild-type protein was “C (A compound having a KD ratio of 0.1 or more and less than 3 is denoted as C)”. Also, the “NRAS /KRAS” value in assay [1] was “B (a compound having 3 or more and less than 10 is denoted as B)”. Further, the IC50 in assay [2] is 1.1 nM.
As for `CCCN1C(=O)CN(C)C(=O)CNC(=O)[C@H]([C@@H](C)CC)NC(=O)[C@H](CC(C)C)N(C)C(=O)C[C@@H](C(=O)N(C)C)N(C)C(=O)[C@H](C2CCCC2)N(C)C(=O)C2(CCCC2)NC(=O)[C@@H]2CCCN2C(=O)[C@H](CCc2ccc(C(F)(F)F)c(Cl)c2)NC(=O)CN(C)C(=O)[C@@H]1Cc1ccc(C(F)(F)F)cc1` [PP0417] ([NMeL]IG[Sar][NPrPhe(4-CF3)][Sar][hPhe(3-Cl-4-CF3)]P[Ac5c][NMeGly(cPent)][NMeD]-NMe2; lactam N-11), the “HRAS /KRAS” value on HRAS wild-type protein was “C (A compound having a KD ratio of 0.1 or more and less than 3 is denoted as C)”. Besides, in assay [1], the “NRAS /KRAS” value was “B (a compound having 3 or more and less than 10 is denoted as B)”. Besides, inhibition in assay [2] was half-maximal at 3.9 nM (IC50).
In the case of `CCCN1C(=O)CN(C)C(=O)CNC(=O)[C@H]([C@@H](C)CC)NC(=O)[C@H](CC(C)C)N(C)C(=O)C[C@@H](C(=O)N(C)C)N(C)C(=O)[C@H](C2CCCC2)N(C)C(=O)C2(CCC2)NC(=O)[C@@H]2CCCN2C(=O)[C@H](CCc2ccc(C(F)(F)F)c(Cl)c2)NC(=O)CN(C)C(=O)[C@@H]1Cc1ccc(C(F)(F)F)cc1` [PP0418] ([NMeL]IG[Sar][NPrPhe(4-CF3)][Sar][hPhe(3-Cl-4-CF3)]P[Ac4c][NMeGly(cPent)][NMeD]-NMe2; lactam N-11), the “HRAS /KRAS” value at HRAS wild-type protein was “C (A compound having a KD ratio of 0.1 or more and less than 3 is denoted as C)”. Moreover, in assay [1], the “NRAS /KRAS” value was “B (a compound having 3 or more and less than 10 is denoted as B)”. Besides, in assay [2], the IC50 was 4.6 nM.
For the molecule `CCCN1C(=O)CN(C)C(=O)CNC(=O)[C@H]([C@@H](C)CC)NC(=O)[C@H](CC(C)C)N(C)C(=O)C[C@@H](C(=O)N(C)C)N(C)C(=O)[C@H](C2CCCC2)N(C)C(=O)C2(CCCC2)NC(=O)[C@@H]2CC(F)(F)CN2C(=O)[C@H](CCc2ccc(C(F)(F)F)c(Cl)c2)NC(=O)CN(C)C(=O)[C@@H]1Cc1ccc(C(F)(F)F)cc1` [PP0419] ([NMeL]IG[Sar][NPrPhe(4-CF3)][Sar][hPhe(3-Cl-4-CF3)][Pro(4,4-F2)][Ac5c][NMeGly(cPent)][NMeD]-NMe2; lactam N-11), the “HRAS /KRAS” value at HRAS wild-type protein was “C (A compound having a KD ratio of 0.1 or more and less than 3 is denoted as C)”. For the same molecule, the “NRAS /KRAS” value in assay [1] is “B (a compound having 3 or more and less than 10 is denoted as B)”. In assay [2], this molecule had an IC50 of 4.2 nM.
For the molecule `CCCN1C(=O)CN(C)C(=O)CNC(=O)[C@H]([C@@H](C)CC)NC(=O)[C@H](CC(C)C)N(C)C(=O)C[C@@H](C(=O)N(C)C)N(C)C(=O)[C@H](C2CCCC2)N(C)C(=O)C2(CCC2)NC(=O)[C@@H]2CC(F)(F)CN2C(=O)[C@H](CCc2ccc(C(F)(F)F)c(Cl)c2)NC(=O)CN(C)C(=O)[C@@H]1Cc1ccc(C(F)(F)F)cc1` [PP0420] ([NMeL]IG[Sar][NPrPhe(4-CF3)][Sar][hPhe(3-Cl-4-CF3)][Pro(4,4-F2)][Ac4c][NMeGly(cPent)][NMeD]-NMe2; lactam N-11), the “HRAS /KRAS” value at HRAS wild-type protein was “C (A compound having a KD ratio of 0.1 or more and less than 3 is denoted as C)”. Moreover, the “NRAS /KRAS” value in assay [1] is “B (a compound having 3 or more and less than 10 is denoted as B)”. Besides, the half-maximal inhibitory concentration (IC50) in assay [2] was 1.2 nM.
Turning to `CCCN1C(=O)CN(C)C(=O)CNC(=O)[C@H]([C@@H](C)CC)NC(=O)[C@H](CC(C)C)N(C)C(=O)C[C@@H](C(=O)N(C)C)N(C)C(=O)[C@H](C2CCCC2)N(C)C(=O)C2(CCCC2)NC(=O)[C@@H]2C[C@@H](OCC)CN2C(=O)[C@H](CCc2ccc(C(F)(F)F)c(Cl)c2)NC(=O)CN(C)C(=O)[C@@H]1Cc1ccc(C(F)(F)F)cc1` [PP0421] ([NMeL]IG[Sar][NPrPhe(4-CF3)][Sar][hPhe(3-Cl-4-CF3)][Hyp](Et)[Ac5c][NMeGly(cPent)][NMeD]-NMe2; lactam N-11), the “HRAS /KRAS” value at HRAS wild-type protein is “C (A compound having a KD ratio of 0.1 or more and less than 3 is denoted as C)”. In addition, in assay [1], the “NRAS /KRAS” value is “B (a compound having 3 or more and less than 10 is denoted as B)”. The IC50 in assay [2] is 2 nM.
For the molecule `CCCN1C(=O)CN(C)C(=O)CNC(=O)[C@H]([C@@H](C)CC)NC(=O)[C@H](CC(C)C)N(C)C(=O)C[C@@H](C(=O)N(C)C)N(C)C(=O)[C@H](C2CCCC2)N(C)C(=O)C2(CCC2)NC(=O)[C@@H]2C[C@@H](OCC)CN2C(=O)[C@H](CCc2ccc(C(F)(F)F)c(Cl)c2)NC(=O)CN(C)C(=O)[C@@H]1Cc1ccc(C(F)(F)F)cc1` [PP0422] ([NMeL]IG[Sar][NPrPhe(4-CF3)][Sar][hPhe(3-Cl-4-CF3)][Hyp](Et)[Ac4c][NMeGly(cPent)][NMeD]-NMe2; lactam N-11), the “HRAS /KRAS” value on HRAS wild-type protein was “B (a compound having 3 or more and less than 10 is denoted as B)”. For the same molecule, the “NRAS /KRAS” value in assay [1] was “B (a compound having 3 or more and less than 10 is denoted as B)”. Half-maximal inhibition in assay [2] (IC50) required 1.6 nM.
Turning to `CCCN1C(=O)CN(C)C(=O)CN(CC)C(=O)[C@H]([C@@H](C)CC)NC(=O)[C@H](CC(C)C)N(C)C(=O)C[C@@H](C(=O)N(C)C)N(C)C(=O)[C@H](C2CCCC2)N(C)C(=O)C2(CCC2)NC(=O)[C@@H]2CCCN2C(=O)[C@H](CCc2ccc(C(F)(F)F)c(Cl)c2)NC(=O)CN(C)C(=O)[C@@H]1Cc1ccc(C(F)(F)F)cc1` [PP0424] ([NMeL]I[NEtG][Sar][NPrPhe(4-CF3)][Sar][hPhe(3-Cl-4-CF3)]P[Ac4c][NMeGly(cPent)][NMeD]-NMe2; lactam N-11), the “HRAS /KRAS” value at HRAS wild-type protein was “C (A compound having a KD ratio of 0.1 or more and less than 3 is denoted as C)”. Besides, the “NRAS /KRAS” value in assay [1] is “B (a compound having 3 or more and less than 10 is denoted as B)”. This molecule had an IC50 in assay [2] of 9.5 nM.
Regarding `CCCN1C(=O)CN(C)C(=O)CN(CC)C(=O)[C@H]([C@@H](C)CC)NC(=O)[C@H](CC(C)C)N(C)C(=O)C[C@@H](C(=O)N(C)C)N(C)C(=O)[C@H](C2CCCC2)N(C)C(=O)C2(CCCC2)NC(=O)[C@@H]2CC(F)(F)CN2C(=O)[C@H](CCc2ccc(C(F)(F)F)c(Cl)c2)NC(=O)CN(C)C(=O)[C@@H]1Cc1ccc(C(F)(F)F)cc1` [PP0425] ([NMeL]I[NEtG][Sar][NPrPhe(4-CF3)][Sar][hPhe(3-Cl-4-CF3)][Pro(4,4-F2)][Ac5c][NMeGly(cPent)][NMeD]-NMe2; lactam N-11), the “HRAS /KRAS” value on HRAS wild-type protein was “C (A compound having a KD ratio of 0.1 or more and less than 3 is denoted as C)”. The “NRAS /KRAS” value in assay [1] is “B (a compound having 3 or more and less than 10 is denoted as B)”. The molecule further gave an IC50 in assay [2] of 6.5 nM.
`CCCN1C(=O)CN(C)C(=O)CN(CC)C(=O)[C@H]([C@@H](C)CC)NC(=O)[C@H](CC(C)C)N(C)C(=O)C[C@@H](C(=O)N(C)C)N(C)C(=O)[C@H](C2CCCC2)N(C)C(=O)C2(CCC2)NC(=O)[C@@H]2CC(F)(F)CN2C(=O)[C@H](CCc2ccc(C(F)(F)F)c(Cl)c2)NC(=O)CN(C)C(=O)[C@@H]1Cc1ccc(C(F)(F)F)cc1` [PP0426] ([NMeL]I[NEtG][Sar][NPrPhe(4-CF3)][Sar][hPhe(3-Cl-4-CF3)][Pro(4,4-F2)][Ac4c][NMeGly(cPent)][NMeD]-NMe2; lactam N-11): the “HRAS /KRAS” value at HRAS wild-type protein was “C (A compound having a KD ratio of 0.1 or more and less than 3 is denoted as C)”. Further, the “NRAS /KRAS” value in assay [1] is “C (A compound having a KD ratio of 0.1 or more and less than 3 is denoted as C)”. For the same molecule, in assay [2], half-maximal inhibition (IC50) was put at 4.8 nM.
As to `CCCN1C(=O)CN(C)C(=O)CN(CC)C(=O)[C@H]([C@@H](C)CC)NC(=O)[C@H](CC(C)C)N(C)C(=O)C[C@@H](C(=O)N(C)C)N(C)C(=O)[C@H](C2CCCC2)N(C)C(=O)C2(CCCC2)NC(=O)[C@@H]2C[C@@H](OCC)CN2C(=O)[C@H](CCc2ccc(C(F)(F)F)c(Cl)c2)NC(=O)CN(C)C(=O)[C@@H]1Cc1ccc(C(F)(F)F)cc1` [PP0427] ([NMeL]I[NEtG][Sar][NPrPhe(4-CF3)][Sar][hPhe(3-Cl-4-CF3)][Hyp](Et)[Ac5c][NMeGly(cPent)][NMeD]-NMe2; lactam N-11), the “HRAS /KRAS” value on HRAS wild-type protein was “C (A compound having a KD ratio of 0.1 or more and less than 3 is denoted as C)”. Moreover, the “NRAS /KRAS” value in assay [1] was “B (a compound having 3 or more and less than 10 is denoted as B)”. The molecule also came in with a half-maximal inhibitory concentration (IC50) in assay [2] of 2.2 nM.

Values taken from EP4603105A1, “PHARMACEUTICAL COMPOSITION CONTAINING CYCLIC COMPOUND HAVING SELECTIVE KRAS INHIBITORY EFFECT AGAINST HRAS AND NRAS” (CHUGAI SEIYAKU KABUSHIKI KAISHA, priority 2022, dated 2024).
